Earlier results in PMC5629142 (Drugs in R&D, 2017).

Settings: TBZ co-administered with CYP2D6 inhibitors

## COc1cc2c(cc1OC)[C@@H]1C[C@H](O)[C@@H](CC(C)C)CN1CC2 [α-HTBZ]
  increase in overall exposure: 3 fold
